Source: US20260356879A1, “CELASTROL DERIVATIVES” (Celloram Inc., priority 2022, published 2026)
pIC50: −log10 of the molar value. Like-named read-outs stand apart in the source and are kept apart here.

Key:
NF-kB = NF-kB luciferase reporter assay (HepG2 NF-kB-Luc reporter cells, IL-1β stimulated); format: cell-based, human; conditions: for pIC50: Homo sapiens; for % IC50 relative to Celastrol: relative to celastrol (compound 1)
Procedure: HepG2 NF-kB-Luc reporter cells stimulated with IL-1β (20 ng/ml) and the relative NF-kB luciferase activity (RLU) was determined for each of celastrol (compound 1) and each of the exemplary derivative compounds at the following eight point concentrations: 10 μM, 5 μM, 2.5 μM, 1.25 μM, 0.63 μM, 0.31 μM, 0.16 μM, 0.016 μM, and 0 μM). Assay values were plotted (not shown) and IC50 inhibitory concentrations were calculated after normalization using Prizm 9.0 software.
This example illustrates a study of the anti-inflammatory potential of an exemplary celastrol derivative of the present disclosure (compound 22) using an NF-κB luciferase promoter reporter gene assay in the human liver cancer cell line, HepG2.
NF-kB luciferase reporter assay: The celastrol derivative, compound 22 (prepared as described in Example 13) and the parent molecule, compound 1 (celastrol), were freshly dissolved in DMSO. HepG2 NF-κB reporter cells were seeded (2.5×10^4/well) in 96-well plate and then pre-treated with either compound 22 or compound 1 at the 8-point concentrations of 10, 5, 2.5, 1.25, 0.63, 0.31, 0.16, 0.016, or 0 μM, respectively, and the NF-κB promoter was activated by adding IL-1β (20 ng/ml) to the cells. After 18 hours, the cells were harvested by adding the 1× passive cell lysis buffer (Promega) and followed by measurement of the relative NF-kB luciferase activity (RLU) using GloMax discover microplate reader (Promega). Inhibitory concentrations (IC50) after normalization using Prizm 9.0 software.

THP-1 cells [1] = test: THP-1 cell viability (inflammasome-induced pyroptosis), live/dead staining and flow cytometry; format: cell-based, human; conditions: THP-1, LPS and Nigericin; FIG. 7A
Source text: (§1) Pyroptosis, a pro-inflammatory form of cell death, is triggered by the activation of NLRP3 inflammasome components (GSDMD and Caspase-1), leading to the release of pro-inflammatory cytokines IL-1β and IL-18, as well as damage-associated molecular patterns (DAMPs). This process elicits a cascade of inflammatory responses, which can persist if dysregulated in affected tissues. Given the significant inhibitory potential of CLM-022 against NLRP3 inflammasome and IL-1β secretion, it was proposed that CLM-022 could effectively enhance cell viability by inhibiting pyroptosis in the context of inflammation and inflammasome activation. This example illustrates a comparative study of the abilities of CLM-022 and MCC950 to protect THP-1 cells from inflammasome-induced pyroptosis.
(§2) After LPS and Nigericin treatment, THP-1 cells were treated with either CLM-022 or MCC950 over a dosage range of 0 μM to 10 μM and cell viability was determined by impermeant live/dead staining dye and flow cytometric analysis. Additionally, NLRP3 inflammasome-induced cytotoxicity was investigated by measuring the level of LDH in the conditioned media after the CLM-022 and MCC950 treatments. Further, Western blotting of samples from the THP-1 cell viability assays was carried out to determine levels of the pyroptosis-mediating molecules, GSDMD and Caspase-1.

GSDMD and Caspase-1 = GSDMD and Caspase-1 cleavage in THP-1 cells (western blot); format: cell-based; conditions: Homo sapiens; THP-1, western blot; FIG. 7C; read-out: concentration inhibiting GSDMD and Caspase-1 cleavage
Source text: as §1, §2

TNF-α secretion [2] = test: TNF-α secretion in BMDMs, LPS + Nigericin; format: cell-based, mouse; conditions: FIG. 5B
Procedure: (§3) This example illustrates a comparative study of CLM-022 and MCC950 in inhibiting NLRP3 inflammasome activity in mouse and human macrophages.
(§4) Bone marrow-derived macrophages (BMDMs) were treated with LPS (100 ng/ml) for 3 hours to induce the expression of inflammatory genes, including TNF-α, NLRP3, and pro-IL-1β. Subsequently, the BMDMs were treated with CLM-022 or MCC950 in a dose range of 0-10 μM for 30 minutes. Then, to fully activate NLRP3-dependent inflammasome activity and cytokine secretion, Nigericin (10 μM) was added to the BMDMs for an additional 30 minutes.

NLRP3 inflammasome [3] = test: IL-1β secretion in THP-1 macrophages, LPS + Nigericin; format: cell-based; conditions: human THP-1 macrophages, LPS (100 ng/ml) + Nigericin (10 μM), 0-10 μM; FIG. 5C; read-out: IC50 for inhibition of IL-1β secretion
Procedure: as §3
To confirm the inhibitory effect of CLM-022 in human macrophages, THP-1 cells, a human leukemia monocytic cell line, were differentiated into macrophages using phorbol 12-myristate-13-acetate (PMA, 100 ng/ml) treatment for one day. The THP-1 macrophages were then treated with LPS (100 ng/ml) for 3 hours to induce the expression of inflammatory genes. Subsequently, the THP-1 cells were treated with CLM-022 or MCC950 in a dose range of 0-10 μM for 30 minutes. Then, to fully activate NLRP3-dependent inflammasome activity, Nigericin (10 μM) was added to the THP-1 cells for an additional 60 min.

NLRP3 inflammasome [4] = test: IL-1β secretion in BMDMs, LPS + Nigericin; format: cell-based, mouse; conditions: Mus musculus, BMDM, LPS (100 ng/ml) + Nigericin (10 μM), 0-10 μM, FIG. 5A, read-out: IC50 for inhibition of IL-1β secretion (normalized)
Procedure: as §3, §4

THP-1 cells [5] = test: LDH release (NLRP3 inflammasome-induced cytotoxicity) in THP-1 cells; format: cell-based, human; conditions: THP-1, LPS and Nigericin, FIG. 7B
Source text: as §1, §2

[6] = test system: LPS-induced acute inflammation; test: LPS-induced septic shock mouse model, cytokine expression in serum (ELISA) and colonic mucosa (qPCR); format: in vivo; conditions: 1 mg/kg i.p. 1 hour before LPS (25 mg/kg, i.p.), 4 hours post LPS, ELISA; FIG. 4A
Procedure: FIG. 4A, and FIG. 4B depict results showing that compound 22 (CLM-022) decreased the production of pro-inflammatory cytokines in the LPS-induced septic shock mouse model as described in Example 17. Compound 1 (CLM-001) and compound 22 (CLM-022) (1 mg/kg) injected intraperitoneally 1 hour prior to septic shock induction by administering sublethal dose of LPS (25 mg/kg, i.p.), mice were sacrificed 4 hours post LPS injection, and subjected to measurement of inflammatory cytokine expression. FIG. 4A depicts plot of data showing that the level of TNF-α decreased in the serum of compound 1 and compound 22 treated mice.
This example illustrates a study of the inhibitory function of an exemplary celastrol derivative of the present disclosure (compound 22) against LPS-induced acute inflammation in vivo, we set up LPS-induced septic shock mouse model (Yu et al., 2017) and detected the expression levels of inflammatory cytokines in colon.
Mice (n=3 per group) were administered intraperitoneally (i.p.) with control vehicle, compound 1 (1 mg/kg), or compound 22 (1 mg/kg). After 1 hour, mice were administered by i.p. injection a sublethal dose of LPS (25 mg/kg). Four hours later, the mice were subjected to blood collection and harvesting colonic mucosa by scraping colon. Cytokine expression was measured by conducting ELISA (Cat #900-T54, PeproTech) for TNF-α on blood serum samples and qPCR for the cytokines, IL-1 (TaqMan, Mm00434228), IL-6 (TaqMan, Mm00446190), TNF-α (TaqMan, 00443258), iNOS (TaqMan, 00440502), on colonic mucosa samples.

TNF-α secretion [7] = test: Secreted TNF-α in conditioned media of BMDC (ELISA), LPS+ATP or LPS+Nigericin; format: cell-based; conditions: 63-500 nM, FIG. 2C
Procedure: FIG. 2A depicts western blot images showing the relative NLRP3 inflammasome activity of the compounds 22 (CLM-022) and 1 (CLM-001) by detecting the level of cellular ASC complex and the mature form of IL-1β (15 kDa) in a conditioned media of BMDCs treated with LPS (100 ng/ml) for 3 hours and then the compound at 50 nM, 100 nM, and 500 nM concentration for 30 min, followed by ATP or Nigericin. ASC monomer and β-Actin proteins were used as controls. FIG. 2B depict plots of results showing secreted IL-1β levels measured by ELISA using conditioned media of BMDC treated with the compound 22 or compound 1 at 63 nM, 125 nM, 250 nM, and 500 nM, under NLRP3 inflammasome activation induced either by LPS+ATP or LPS+Nigericin. FIG. 2C depict plots of results showing secreted TNF-α levels measured by ELISA using conditioned media of BMDC treated with the compound 22 or compound 1 at 63 nM, 125 nM, 250 nM, and 500 nM, under NLRP3 inflammasome activation induced either by LPS+ATP or LPS+Nigericin.
3. The secreted form of TNF-α, a NLRP3 inflammasome independent cytokine, induced by LPS+ATP or LPS+Nigericin were measured by ELISA assay using the conditioned media of BMDC treated with compound 1 (CLM-1) or compound 22 (CLM-022) at concentrations of 63, 125, 250, 500 nM under NLRP3 inflammasome activation induced either by LPS+ATP or LPS+Nigericin.

[8] = HepG2 NF-kB-Luc reporter cells, IL-1β (20 ng/ml), Example 13, read-out: NF-kB IC50

In the case of `CC1=C(O)C(=O)C=C2C1=CC=C1[C@@]2(C)CC[C@@]2(C)C3C[C@](C)(NC(=O)C(=O)N4CCN(C)CC4)CC[C@]3(C)CC[C@]12C` (stereo partly drawn) [Compound 14, N-((2R,4aS,6aS,12bR,14aS)-10-hydroxy-2,4a,6a,9,12b,14a-hexamethyl-11-oxo-1,2,3,4,4a,5,6,6a,11,12b,13,14,14a,14b-tetradecahydropicen-2-yl)-2-(4-methylpiperazin-1-yl)-2-oxoacetamide], the pIC50 (NF-kB; [8]) was 5.94 and the “% IC50 relative to Celastrol” value (NF-kB) was 115%.
`CC1=C(O)C(=O)C=C2C1=CC=C1[C@@]2(C)CC[C@@]2(C)C3C[C@](C)(NC(=O)C(=O)NC4CN(C)C4)CC[C@]3(C)CC[C@]12C` (stereo partly drawn) [Compound 17, N1-((2R,4aS,6aS,12bR,14aS)-10-hydroxy-2,4a,6a,9,12b,14a-hexamethyl-11-oxo-1,2,3,4,4a,5,6,6a,11,12b,13,14,14a,14b-tetradecahydropicen-2-yl)-N2-(1-methylazetidin-3-yl)oxalamide] was tested, and the pIC50 (NF-kB; [8]) was 5.78 and the “% IC50 relative to Celastrol” value (NF-kB) was 163%.
`CC1=C(O)C(=O)C=C2C1=CC=C1[C@@]2(C)CC[C@@]2(C)C3C[C@](C)(NC(=O)C(=O)N4CC5(COC5)C4)CC[C@]3(C)CC[C@]12C` (stereo partly drawn) [Compound 15, N-((2R,4aS,6aS,12bR,14aS)-10-hydroxy-2,4a,6a,9,12b,14a-hexamethyl-11-oxo-1,2,3,4,4a,5,6,6a,11,12b,13,14,14a,14b-tetradecahydropicen-2-yl)-2-oxo-2-(2-oxa-6-azaspiro[3.3]heptan-6-yl)acetamide] was tested, and the pIC50 (NF-kB; [8]) was 6.03 and the “% IC50 relative to Celastrol” value (NF-kB) was 93%.
`CC(C)(O)c1coc(S(=O)(=O)NC(=O)Nc2c3c(cc4c2CCC4)CCC3)c1` [MCC950, reference compound] was tested, and the “cell viability (in words)” value (THP-1 cells [1]) was “A similar effect”, the minimal effective concentration (GSDMD and Caspase-1) was 1 µM and the “suppression of TNF-α secretion” value (TNF-α secretion [2]) was “neither CLM-022 nor MCC950 suppressed TNF-α secretion”. For the same compound, the pIC50 (NLRP3 inflammasome [3]) was 5.90, the pIC50 (NLRP3 inflammasome [4]) was 7.15 and the pIC50 (THP-1 cells [5]; Homo sapiens, 0 μM to 10 μM, read-out: IC50 for LDH release (normalized)) was 6.91. The “inhibition of LDH release” value (THP-1 cells [5]) was “significantly inhibited release of LDH”.
With `CC1=C(O)C(=O)C=C2C1=CC=C1[C@@]2(C)CC[C@@]2(C)C3C[C@](C)(N(C)C(=O)C(=O)N4CCN(C)CC4)CC[C@]3(C)CC[C@]12C` (stereo partly drawn) [Compound 16, N-((2R,4aS,6aS,12bR,14aS)-10-hydroxy-2,4a,6a,9,12b,14a-hexamethyl-11-oxo-1,2,3,4,4a,5,6,6a,11,12b,13,14,14a,14b-tetradecahydropicen-2-yl)-N-methyl-2-(4-methylpiperazin-1-yl)-2-oxoacetamide] the pIC50 (NF-kB; [8]) was 5.94 and the “% IC50 relative to Celastrol” value (NF-kB) was 114%.
For `CC1=C(O)C(=O)C=C2C1=CC=C1[C@@]2(C)CC[C@@]2(C)[C@@H]3C[C@](C)(C(=O)O)CC[C@]3(C)CC[C@]12C` [Compound 1, (2R,4aS,6aR,6aS,14aS,14bR)-10-hydroxy-2,4a,6a,6a,9,14a-hexamethyl-11-oxo-1,3,4,5,6,13,14,14b-octahydropicene-2-carboxylic acid, reference compound], the “level of TNF-α in serum” value [6] was “decreased”, the “suppression of TNF-α secretion” value (TNF-α secretion [7]) was “no significant suppressive effect on TNF-α inflammatory cytokine secretion” and the pIC50 (NF-kB; HepG2, IL-1β (20 ng/ml), 18 hours, normalized, Example 14, FIG. 1B, read-out: IC50 for NF-κB promoter activity) was 6.28. It also gave a pIC50 (NF-kB; [8]) of 6.18.
